Measured values as given in patent US10610506B2 (UCL Business PLC, priority 2004, dated 2020).
“Also recorded” adds a separate entry of the source.

Legend:
[1] = system: patients with cirrhosis and hyperammonemia; assay: Open labelled study of ornithine, phenylbutyrate and OP in hepatic encephalopathy; format: in vivo, human; settings: for mean ammonia levels: over the period of treatment (FIG. 11); for mean glutamine levels: over the period of treatment (FIG. 12)
Text: • 1. Groups-3 patients per group. Total 12. • 2. Inclusion criteria • adult patients aged 18-80 years, —liver cirrhosis documented by histology or clinical criteria • HE type C, ammonia concentration of >80 umol/L, informed consent/assent • 3. Exclusion criteria • other concomitant neurological disorder, —use of another specific ammonia lowering drug, —respiratory failure requiring mechanical ventilation and sedation, —uncontrolled gastrointestinal bleeding, —hypotension requiring inotropes, overt renal failure (creatinine >2 mg/dl), hemodialysis, —extracorporeal liver support, known hypersensitivity to any of the study drugs, —pregnancy. Assessment of Mental State
(§1) In an open labelled study, we included 8 patients with cirrhosis and hyperammonemia. They were matched for the severity of liver disease (see Table 3). They were treated with one of the following regimes for a 3 day period and observations were made for 5 days. The study groups were:
(i) Placebo: 5% Dextrose over 4 hours;
(iii) Phenylbutyrate: 10 g twice daily, orally (0800 and 1600); and
Patients were fasted overnight between 0000 midnight and 0800 am. They were fed intragastrically with a diet of 25 KCal/Kg that included 1 g/Kg protein diet starting at 0800 and finishing at midnight. Blood was sampled at 0730 am and then at 1800 hr for the measurement of ammonia and glutamine. Patients were monitored closely for side effects.

[2] = system: devascularized pig model of acute liver failure; assay: Devascularized pig model of acute liver failure; format: in vivo, pigs; settings: for muscle ammonia uptake/production (femoral vein-artery): FIG. 23
Procedure: Pigs had catheters inserted into the femoral artery and vein, portal vein, renal vein and pulmonary artery. The experiment started at time=−1 hr, when placebo or treatment infusions were started.
1. Placebo: 5% Dextrose over 3 hours, oral water placebo
At the end of the experiment a section of frontal cortex was removed for brain water measurements.

[3] = system: patients with cirrhosis admitted for management of variceal bleeding; assay: Open labelled study of isoleucine and OIP after variceal bleeding; format: in vivo, human
Procedure: • 1. Groups—2 patients per group. Total 6 • 2. Inclusion criteria • Adult patients aged 18-80 years, liver cirrhosis documented by histology or clinical criteria, Child B or C, recent Gastrointestinal bleed from varices (<6 hours after presentation), informed consent/assent. • 3. Exclusion criteria • other concomitant neurological disorder, use of another specific ammonia lowering drug, respiratory failure requiring mechanical ventilation and sedation, uncontrolled gastrointestinal bleeding, hypotension requiring inotropes, overt renal failure (creatinine >2 nag/dl), hemodialysis, extracorporeal liver support, known hypersensitivity to any of the study drugs, pregnancy/lactation. Methods
as §1, with “6” for “8”, “who were admitted for management of variceal bleeding.” for “hyperammonemia.”, “4).” for “3).”
i. Placebo: 5% Dextrose over 4 hours (250 ml)
ii. Isoleucine alone: 10 gm IV in 250 ml 5% Dextrose over 2 hours in two divided doses.
Patients were fasted overnight between 0000 midnight and 0800 am. They were fed intragastrically with a diet of 25 KCal/Kg that included 1 g/Kg protein diet starting at 0800 and finishing at midnight. Blood was sampled at 0730 am and then at 1800 hr for the measurement of ammonia and glutamine. Patients were monitored closely for side effects. The drug was tolerated well in each of the groups and no adverse events were observed. Because the patients received sedation for their initial endoscopy, the mental state assessment was impossible to interpret. One patient each in the Placebo and the Isoelucine groups died from multiorgan failure in the hospital. The rest of the patients survived.

[4] = system: neutrophils; assay: Phagotest neutrophil phagocytosis, blood incubated with ammonia and amino acids; format: cell-based, human
Procedure: Methods for Measurement of Neutrophil Phagocytosis and oxidative burst Phagotest: Heparinised whole blood was incubated with opsonised FITC-labelled E coil and CD16. The cells were then analysed by flow cytometry (FACScan Becton Dickinson), gated through forward and side scatter and subsequently assessed on the basis of R-phycoerythrin (PE) [Immunotech, Marseille, France] flurochrome expression to identify CD16 positive cells. The gated population was then assessed for the presence of FITC-labelled bacteria.
(§2) Blood was collected from healthy volunteers (n=15) and incubated for 1 hour with increasing concentrations of ammonia. The ability of the neutrophils to phagocytose bacteria was measured using the Phagotest and Neutrophil chemotaxis assays. 10 ng/ml IL-8 was used in the Neutrophil chemotaxis assay.
Blood was collected from healthy volunteers (n=15) and incubated for 1 hour with ammonia and selected amino acids. The ability of the neutrophils to phagocytose bacteria was measured using the Phagotest assay.

[5] = system: neutrophils; settings: blood incubated 1 hour with increasing concentrations of ammonia; 10 ng/ml IL-8 (FIG. 3)
Procedure: Neutrophil Chemotaxis: Neutrophil chemotaxis was measured using a modified Boyden chamber method using interleukin-8 as chemo-attractant to stimulate chemokinesis.
as §2

[6] = system: patients with biopsy-proven cirrhosis of the liver; assay: Simulated bleed with isoleucine supplementation: protein kinetics (Phe model) and ammonia; format: in vivo, human; settings: for Net Balance / Protein breakdown / Protein synthesis: mean ± SEM
Procedure: Sixteen metabolically stable patients with biopsy-proven cirrhosis of the liver were studied. Patients were randomized either to supplementation with isoleucine (40 mg/L solution; 50 ml/hr) or placebo during a simulated bleed over a 4-hour period. Protein synthesis (measured using primed continuous infusion of L-[ring-^2H5]phenylalanine), L-[ring-^2H4]tyrosine and L[ring-^2H2]tyrosine) and ammonia.

[7] = system: patients with biopsy proven cirrhosis of the liver; assay: Simulated gastrointestinal bleed in cirrhotic patients, neutrophil chemotaxis with isoleucine infusion; format: in vivo, human; settings: after simulated bleed (75 g amino acid mixture), isoleucine iv over 2 hours
Text: Ten overnight fasted, metabolically stable patients with biopsy proven cirrhosis of the liver [9 males and 1 female; mean 49.6 years (SEM 9.1); mean Child-Pugh score of 7.8 (SEM 1.2)] were studied prior to and two hours after an oral administration of 75 grams of an amino acid mixture that mimics the hemoglobin molecule (Nutricia, Cuijk, Netherlands). In seven other patients [4 male and 3 female; mean 51.4 years (SEM 6.7); mean Child-Pugh score of 8.1 (SEM 1.4)], following administration of the amino acid mixture, isoleucine was administered intravenously over a 2 hour period (iso-osmotic solution containing 40 mg/l of isoleucine at a rate of 100 ml/hr). Neutrophil chemotaxis (see Example 1 for method) and plasma ammonia were measured in peripheral venous blood samples.

[8] = system: BDL cirrhotic rats; assay: Bile duct ligated rat model, IP ornithine, phenylbutyrate, OP; format: in vivo, Sprague-Dawley rats
Procedure: Male Sprague-Dawley rats (200-250 g) were used for this procedure. Following anaesthetisation, a mid-line laparotamy was performed, the bile duct was exposed, triply ligated with 4.0 silk suture, and severed between the second and third ligature. The wound was closed in layers with absorbable suture, and the animal allowed to recover in a quiet room before being returned to the animal storage facility. Animals were kept at a constant temperature (20° C.) in a 12 hour light/dark cycle with access to water and standard rodent chow ad libitum. […] At six weeks, under anaesthesia a right carotid arterial catheter was inserted and used to collect repeated blood samples. Following this procedure a baseline sample was collected prior to administration of the study formulations by IP injection. […] Blood samples were collected into pre-cooled […] tubes and stored on ice prior to processing. Plasma was collected following centrifugation (3,000 rpm, 10 mins) and stored at -80° C. prior to analyses. Ammonia, glucose, lactate and urea were measured using a COBRAS Mira S according to manufacturers instructions. Amino acids were quantified by HPLC with fluorescence detection.

[9] = system: patients with advanced cirrhosis; assay: Aspartate accumulation during L-ornithine L-aspartate treatment; format: in vivo, human
[10] = system: patients with HE grade 3 undergoing heamofiltration; assay: LOLA infusion in patients undergoing heamofiltration (CVVH); format: in vivo, human
Text: (§3) Blood was sampled for the measurement of ammonia and glutamine.

[11] = system: patients with cirrhosis; assay: LOLA infusion in cirrhosis with HE: ammonia and glutamine; format: in vivo, human
Text: as §3

[12] = LOLA 40 g over 8 hours (FIG. 8)

In the case of `NCCC[C@H](N)C(=O)O` [ornithine], the mean ammonia levels [1] is reported as “increased from baseline values”, the mean glutamine levels [1] is reported as “increase” and the arterial ornithine levels ([2]; FIG. 27) is reported as “increase”. For the same compound, the Ornithine levels ([3]; over the course of OIP treatment, reduced to basal values on stopping the drug (FIG. 18)) was “marked sustained increase”.
`NC(=O)CC[C@H](N)C(=O)O` [glutamine] was tested, and the “ammonia-induced reduction in neutrophil phagocytosis” value ([4]; blood incubated 1 hour with ammonia and selected amino acid (FIG. 4)) was “partially reversed”.
With `N` [ammonia] the neutrophil phagocytosis ([4]; blood of healthy volunteers incubated 1 hour with increasing concentrations of ammonia (FIG. 2)) was “significant reduction” and the neutrophil chemotaxis [5] was “significant reduction”.
In the case of `CC[C@H](C)[C@H](N)C(=O)O` [isoleucine], the “Net Balance” value ([6]; Leg, End) is reported as 261 ± 102 nmol/kg body cell mass/min, the Protein breakdown ([6]; Leg, End) is reported as 159 ± 100 nmol/kg body cell mass/min and the Protein synthesis ([6]; Leg, End) is reported as 377 ± 135 nmol/kg body cell mass/min. For the same compound, the “Net Balance” value ([6]; Leg, t = 0 hours) was −185 ± 152 nmol/kg body cell mass/min, the Protein breakdown ([6]; Leg, t = 0 hours) was 196 ± 61 nmol/kg body cell mass/min and the Protein synthesis ([6]; Leg, t = 0 hours) was −31 ± 201 nmol/kg body cell mass/min. For the same compound, the Protein synthesis ([6]; Liver, End (final hour of amino acid infusion)) was 839 ± 221 nmol/kg body cell mass/min, the “Net Balance” value ([6]; Liver, End) was 682 ± 165 nmol/kg body cell mass/min and the Protein breakdown ([6]; Liver, End) was 157 ± 204 nmol/kg body cell mass/min. For the same compound, the “Net Balance” value ([6]; Liver, t = 0 hours) was 98 ± 33 nmol/kg body cell mass/min, the Protein breakdown ([6]; Liver, t = 0 hours) was 109 ± 25 nmol/kg body cell mass/min and the Protein synthesis ([6]; Liver, t = 0 hours) was 218 ± 37 nmol/kg body cell mass/min. The “protein synthesis of liver and muscle” value ([6]; isoleucine infusion during simulated bleed) was “restores impaired protein synthesis”, the “ammonia concentration, isoleucine versus placebo” value ([6]; simulated bleed over 4 hours (FIG. 7)) was “not significantly different” and the “patients died from multiorgan failure in the hospital” value ([3]; 2 patients per group) was “One”. For the same compound, the ammonia concentrations ([3]; FIG. 14) was “no significant changes”, the glutamine levels ([3]; FIG. 15) was “not significantly altered” and the Dead/Alive ([3]; individual patients P3-P6, listed as Isoleucine alone) was “P3: A; also recorded: P4: D”. The neutrophil chemotaxis [7] was 25.4 (±6.0) cells/high power field.
phenylbutyrate was tested, and the plasma ammonia ([8]; after 1 hour, p<0.01 vs all other groups) was “significant increase”, the plasma ammonia ([8]; three hour time point / end of the study) was “difference was found to be smaller” and the Dead/Alive ([1]; individual patients P3-P8, listed as Phenylbutyrate alone) was “P5: A; also recorded: P6: A”. The mean ammonia levels [1] was “increased from baseline values”, the mean glutamine levels [1] was “reduction” and the arterial ammonia ([2]; 0.3 g/Kg each over 3 hours, to experiment termination (FIG. 22), listed as Phenylbutyrate alone) was “initial blunting of arterial ammonia levels, which quickly rises to levels comparable with ornithine alone at experiment termination; also recorded: insignificant effects”. For the same compound, the “muscle ammonia uptake/production (femoral vein-artery)” value ([2]; listed as P alone) was “increase in ammonia production by the muscle”, the “muscle ammonia uptake/production (femoral vein-artery)” value ([2]; listed as Phenylbutyrate alone) was “little change” and the “gut ammonia production (portal drained viscera-artery)” value ([2]; FIG. 24) was “appreciable”. For the same compound, the muscle glutamine release ([2]; FIG. 25, listed as Phenylbutyrate alone) was “net removal”, the gut glutamine uptake ([2]; FIG. 26) was “little overt effect” and the arterial glutamine levels ([2]; FIG. 28) was “marginally increases”.
In the case of L-ornithine L-aspartate [LOLA], the ASPARTATE concentration ([9]; Day 1, 40 g/day) is reported as 178 µmol/L, the ASPARTATE concentration ([9]; Day 2, 40 g/day) is reported as 289 µmol/L and the ASPARTATE concentration ([9]; Day 3, 40 g/day) is reported as 354 µmol/L. The ASPARTATE concentration ([9]; PRE, 40 g/day L-ornithine L-aspartate) was 72 µmol/L, the “increase in the aspartate concentration” value ([9]; over a 3 day period) was 5 times the basal value and the ammonia concentration ([10]; LOLA 40 g over 8 hours with CVVH (FIG. 9)) was “reduction”. The glutamine concentration ([10]; LOLA with addition of dialysis (FIG. 9)) was “prevented the concomitant increase”, the “severity of HE” value ([11]; LOLA 40 g over 8 hours) was “beneficial effects” and the ammonia concentration [11, 12] was “significant reduction”. The glutamine concentration [11, 12] was “concomitant rise”, the “recurrence of HE” value ([11]; after LOLA was stopped) was 3 of the 6 and the “circulating ammonia levels when LOLA was stopped” value ([11]; after stopping infusion) was “rebound increase”.
